Data taken from patent US20100104534A1, “HYDRAZIDO-PEPTIDES AS INHIBITORS OF HCV NS3-PROTEASE” (priority 2007, published 2010).

Tested on: replicon
Test: Replicon assay
Type: cell-based

Row | Compound | IC50
1 | CCCN(NC(=O)[C@@H]1[C@@H]2[C@H](CN1C(=O)[C@@H](NC(=O)N[C@H](CN1C(=O)CC(C)(C)CC1=O)C(C)(C)C)C(C)(C)C)C2(C)C)C(=O)N[C@@H](C)c1ccccc1 [Compound 3] | ≤ 500 nM
2 | CCCN(NC(=O)[C@@H]1[C@@H]2[C@H](CN1C(=O)[C@@H](NC(=O)N[C@H](CN1C(=O)C3CCC(C3)C1=O)C(C)(C)C)C(C)(C)C)C2(C)C)C(=O)N[C@@H](C)c1ccccc1 [Compound 5] | ≤ 500 nM
3 | C[C@H](NC(=O)N(CC1CC1)NC(=O)[C@@H]1[C@@H]2[C@H](CN1C(=O)[C@@H](NC(=O)N[C@H](CN1C(=O)C3CCC(C3)C1=O)C(C)(C)C)C(C)(C)C)C2(C)C)c1ccccc1 [Compound 6] | 500 to 3000 nM
4 | CCCN(NC(=O)[C@@H]1[C@@H]2[C@H](CN1C(=O)[C@@H](NC(=O)NC1(CS(=O)(=O)C(C)(C)C)CCCCC1)C1(C)CCCCC1)C2(C)C)C(=O)N[C@@H](C)c1ccccc1 [Compound 1] | 500 to 3000 nM
5 | CCCN(NC(=O)[C@@H]1[C@@H]2[C@H](CN1C(=O)[C@@H](NC(=O)N[C@H](CN(C)S(C)(=O)=O)C(C)(C)C)C(C)(C)C)C2(C)C)C(=O)N[C@@H](C)c1ccccc1 [Compound 2] | ≤ 500 nM
